The record followed here is patent US11857513B2, “Selective inhibitor of exon 20 insertion mutant EGFR” (Taiho Pharmaceutical Co., Ltd., priority 2016, dated 2024).

Each structure is given as a SMILES string. Read-outs that look alike come from different tables or passages of the source.

In one data set the test system is A431 cells. Briefly: Cell growth inhibitory effect on wild-type EGFR-expressing human cell line (CellTiter-Glo). The data set is classed as cell-based. As to conditions: A-431, 72 h, read-out: GI50 A431. As to the method: (§1) To evaluate the inhibitory activity of compounds against wild-type EGFR and mutant EGFR, the following cells were used: NCI-H1975 cells, which are human pulmonary adenocarcinoma cell lines expressing EGFR with mutation D770_N771insSVD by gene modification (which hereinafter also referred to as “H1975-EGFRinsSVD”); and A431 cells, which are human epithelial cancer cell lines expressing wild-type EGFR. H1975-EGFRinsSVD cells were prepared as follows. […] XTN (trademark) TALENs Site-Specific Nucleases (Transposagen) were introduced into the cells by electroporation using the Amaxa (trademark) Cell Line Nucleofector (trademark) Kit R, and endogenous-EGFR (T790M/L858R)-knockout cells were selected by sequencing.
(§2) To evaluate the cell growth inhibitory effect, individual types of cells were suspended in a medium recommended by ATCC. The cell suspensions were seeded in each well of respective 96-well flat-bottom plates such that the cell count per well was 3,000, and incubated in a 5% CO2-containing incubator at 37° C. for 1 day. […] The cell count at the time incubation started (day 0) and the cell count after incubation (day 3) were measured using a CellTiter-Glo (trademark) Luminescent Cell Viability Assay (Promega Corporation) in accordance with the manufacturer's recommended protocol.
(§3) 1) If T on day 3≥C on day 0: Growth Rate (%)=(T on day 3−C on day 0)/(C on day 3−C on day 0)×100 T: the luminescence intensity of a well to which a test compound was added. C: the luminescence intensity of a well to which the test compound was not added. Day 0: the day on which a test compound was added. Day 3: the day on which evaluation was performed. 2) If T on day 3<C on day 0: Growth Rate (%)=(T on day 3−C on day 0)/(C on day 0)×100 T: the luminescence intensity of a well to which a test compound was added. C: the luminescence intensity of a well to which the test compound was not added. Day 0: the day on which a test compound was added. Day 3: the day on which evaluation was performed.

The test system of data set [1] is H1975-EGFRinsSVD cells. Briefly: Cell growth inhibitory effect on mutant EGFR-expressing human cell line (CellTiter-Glo). The data set is classed as cell-based. As to conditions: Homo sapiens, NCI-H1975, 72 h, read-out: GI50 H1975 EGFRinsSVD. As to the method:
as §1, §2, §3
Additionally, the ratio of GI50between wild-type EGFR and EGFR exon 20 insertion mutation was determined using the following formula.
GI50 (A431): GI50 for wild-type EGFR
GI50 (H1975 EGFRinsSVD): GI50 for EGFR exon 20 insertion mutation

In the next data set the test system is NIH3T3-EGFRinsASV cells. Briefly: Antitumor effect, nude mice subcutaneously transplanted with NIH3T3-EGFRinsASV cells. The data set is classed as in vivo, mouse. As to conditions: 20 mg/kg orally once daily, 14 days. As to the method: (§4) Nude mice were subcutaneously transplanted with NIH3T3-EGFRinsASV cells, NIH3T3-EGFRinsSVD cells, or H1975-EGFRinsSVD cells to which human mutant EGFR was introduced. At the point at which the tumor volume of the tumor engrafted in the nude mice grew to about 100 to 200 mm^3, the mice were allocated into groups, 5 to 6 mice for each group, by stratified randomization such that the average tumor volume between the groups was uniform.
(§5) The maximum tolerated dose was determined in accordance with the “Guidelines Involving Experimental Neoplasia Proposals in Mice and Rats” of the National Cancer Institute (NCI), from a humanitarian perspective.
(§6) To compare the changes in growth of tumor over time due to administration of the individual test compounds, a relative tumor volume (which hereinafter also referred to as “RTV”) was calculated based on the tumor volume at the time the mice were divided into groups (which is taken as 1 for the tumor growth ratio), using the following formula. For a toxicity index, the body weight was measured over time, and the average body weight change (which hereinafter also referred to as “BWC (%)”) from the day on which the mice were divided into groups was calculated in accordance with the following formula.
(§7) RTV=(the tumor volume on the day a tumor volume was measured)/(the tumor volume on the day mice were divided into groups) […]

A further data set has as its system NIH3T3-EGFRinsSVD cells. The data set is described as follows: Antitumor effect, nude mice subcutaneously transplanted with NIH3T3-EGFRinsSVD cells. The data set is classed as in vivo, mouse. The conditions noted are these: 20 mg/kg orally once daily, 14 days. As to the method: as §4, §5, §6, §7
Data set [2] relates to H1975-EGFRinsSVD cells. Briefly: Antitumor effect, nude mice subcutaneously transplanted with H1975-EGFRinsSVD cells. The data set is classed as in vivo, mouse. As to conditions: 20 mg/kg orally once daily, 14 days. As to the method:
as §4, §5, §6, §7

In another data set the test system is NIH3T3-EGFRinsNPH cells. Briefly: Antitumor effect, nude mice subcutaneously transplanted with NIH3T3-EGFRinsNPH cells. As to conditions: NIH3T3 EGFRinsNPH, 20 mg/kg orally once daily, 10 days. As to the method:
Nude mice were subcutaneously transplanted with NIH3T3-EGFRinsNPH cells into which human mutant EGFR was introduced. At the point at which the tumor volume of the tumor engrafted in the nude mice grew to about 100 to 200 mm^3, the mice were allocated into groups, 6 mice for each group, by stratified randomization such that the average tumor volume between the groups was uniform.
as §5
To compare the changes in growth of tumor over time due to administration of the individual test compounds, the tumor volume (which hereinafter also referred to as “TV”) of each mouse was calculated using the following formula. For a toxicity index, the body weight was measured over time, and the body weight change (which hereinafter also referred to as “BWC (%)”) from the day on which the mice were divided into groups was calculated in accordance with the following formula. FIGS. 9 and 10 illustrate changes in the average TV and the average BWC of the mice.
TV (mm^3)=(the major axis x the short axis^2)/2
(§8) BWC (%)=(the body weight measured on body weight measurement day)/(the body weight on the day mice were divided into groups)
The T/C (%) on the final evaluation day was calculated in accordance with the following formula.
T/C (%)=(the tumor volume of the group administered with a test compound)/(the tumor volume of the control group)

The subject of data set [3] is H1975-EGFRinsSVD-Luc cells. The data set is described as follows: Life-extending effect, nude mice transplanted with H1975-EGFRinsSVD-Luc cells in the lung. The conditions noted are these: H1975 EGFR insSVD in lung, 20 mg/kg orally once daily. As to the method: H1975-EGFRinsSVD-Luc strain was established by introducing a luciferase into H1975-EGFRinsSVD, which is a human mutant EGFR-introduced cell line. A pJTI (trademark) Fast DEST vector, which was prepared by encoding a Luciferase into NCI-H1975-EGFRinsSVD cells, was introduced into […], together with a pJTI (trademark) PhiC31 integrase expression vector, by electroporation using an Amaxa (trademark) Cell Line Nucleofector (trademark) Kit R, followed by selection using hygromycin B (Nacalai Tesque Inc.).
In evaluation of the life-extending effect, an equivalent amount of Matrigel was added to a suspension of cultured H1975-EGFRinsSVD-Luc cells to prepare a cell suspension, and the cell suspension was transplanted into the right lung of nude mice. On day 6 after transplantation, all of the living mice were administered a luciferin through the tail vein, and allocated into groups, 9 mice for each group, by stratified randomization such that the average luminescence intensity between the groups was uniform. […] The maximum tolerated dose was determined in accordance with the “Guidelines Involving Experimental Neoplasia Proposals in Mice and Rats” of the National Cancer Institute (NCI), from a humanitarian perspective.
To evaluate the life-extending effect, the survival period after transplantation was observed, and the survival time of each mouse was determined. From the survival time, the median survival time (which hereinafter also referred to as “MST”) of each group was calculated, and the survival period-extending effect (i.e., an increase in lifespan, which hereinafter also referred to as “I.L.S. (%)”) was calculated based on MST of the control group and the group administered with a test compound, using the following formula. For a toxicity index, the body weight was measured over time, and the body weight change (which hereinafter also referred to as “BWC (%)”) from the day on which the mice were divided into groups was calculated in accordance with the following formula.
T: MST of the group administered with a test compound
C: MST of the control group
as §8

Data set [4] can be described thus: Time of maximum blood concentration after oral administration in nude mice. The data set is classed as in vivo, mouse. The conditions noted are these: single oral administration, around.

Usually GI50 stands for the concentration that inhibits growth by half. Take `C=CC(=O)Nc1cc(Nc2nccc(-c3cn(C)c4ccccc34)n2)c(OC)cc1N(C)CCN(C)C` [Osimertinib, osimertinib, reference compound]: the 50% growth inhibitory concentration (GI50) is […] in the data set with A431 cells and 194 nM in the data set with H1975-EGFRinsSVD cells [1].
Consider `C=CC(=O)N[C@H]1CCc2c(-c3cnc4ccccc4c3)c3c(N)ncnc3n2C1` [Comparative Compound, (S)—N-(4-amino-5-(quinolin-3-yl)-6,7,8,9-tetrahydropyrimido[5,4-b]indolizin-8-yl)acrylamide, reference compound], for which the GI50 was determined as 543 nM with A431 cells (A431, wild-type EGFR, 3 days) and 364 nM in the data set with H1975-EGFRinsSVD cells [1] (H1975-EGFRinsSVD, D770_N771insSVD, 3 days).
With `CN(C)C/C=C/C(=O)Nc1cc2c(Nc3ccc(F)c(Cl)c3)ncnc2cc1O[C@H]1CCOC1` [Afatinib, afatinib, reference compound], the “T/C (%) on the final evaluation day” value in the data set with NIH3T3-EGFRinsASV cells is reported as 46%; with NIH3T3-EGFRinsSVD cells, 39%; in the data set with H1975-EGFRinsSVD cells [2] it was 79%; with NIH3T3-EGFRinsNPH cells, 59%. The “I.L.S. (%) (increase in lifespan)” value in data set [3] amounted to 23%. Besides, the “MST (median survival time)” value in data set [3] stood at 54. For the same compound, the “time at which the maximum blood concentration is achieved” value in data set [4] is given as “three hours”.
